Assays:
[1] = target: T1, G-protein coupled receptor 55 (Homo sapiens, UniProt Q9Y2T6); assay: Cell Based Antagonist Arrestin LeadHunter Assay; conditions: Eurofins, read-out: EC50 or IC50, G-protein coupled receptor 55, antagonist mode
T1 construct: Eurofins (contract assay)
Description: For displacement assays on G-protein coupled receptor 55 (GPR55), Vasopressin V2 receptor (V2R), Adenosine A1 receptor (A1AR), Fibroblast growth factor receptor 1 (FGFR1), Vascular endothelial growth factor receptor 2 (VEGFR2), Platelet-derived growth factor receptor beta (PDGFRB), Vascular endothelial growth factor receptor 1 (VEGFR1), Thromboxane Synthase (TXS) and Phosphodiesterase 10A (PDE10A), we commissioned the Eurofins company which employed its specific experimental methods, accessible at the link: https://www.eurofins.com/.

[2] = target: T2, PPARγ-Ligand Binding Domain (human recombinant) (Homo sapiens, UniProt P37231); assay: PPARγ-LBD Ligand Screening Assay Kit (Cayman); conditions: PPARγ-LBD probe displacement, top concentration 30 μM; read-out: EC50 or IC50, peroxisome proliferator-activated receptor gamma
T2 construct: purchased Cayman
T2 sequence (P37231 238-503 limits assumed): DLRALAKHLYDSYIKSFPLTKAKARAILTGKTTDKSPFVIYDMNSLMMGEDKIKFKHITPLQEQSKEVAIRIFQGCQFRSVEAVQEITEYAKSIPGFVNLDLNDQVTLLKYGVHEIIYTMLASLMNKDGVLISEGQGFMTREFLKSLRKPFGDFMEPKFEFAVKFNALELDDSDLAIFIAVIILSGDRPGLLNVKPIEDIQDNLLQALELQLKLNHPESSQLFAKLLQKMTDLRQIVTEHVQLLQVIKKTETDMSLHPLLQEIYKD
Experimental: The assay was performed in a volume of 50 μL in a 96-well plate. In the PPARγ-Ligand Binding Domain screening assay (Cayman, USA), a ligand of Peroxisome proliferator-activated receptor gamma (PPARγ) is conjugated to fluorescein and is used as a displacement probe. To evaluate the binding ability to the target, PPARγ-Ligand Binding Domain (human recombinant), PPARγ Probe – Green and the compounds were incubated in the dark for 1 h at room temperature. The compounds were added at different concentrations in the reaction buffer, starting from a final concentration of 30 μM. Buffer with the same amount of DMSO (1%) was used as a negative control. The fluorescence signals (excitation/emission, 490 nm/520 nm) were read using a PerkinElmer EnSpire multimode plate reader (PerkinElmer, Waltham, MA, USA). The experiments were performed in triplicate. The IC50 values were calculated using GraphPad Prism 8.0 software by nonlinear regression of dose–response inhibition.

[3] = test system: A549; assay: MTT cell viability assay; assay type: cell-based; conditions: Homo sapiens, 24 h, compounds 0.01–40 μM, read-out: In Vitro Cytotoxicity, EC50 ± SD, A549
Description: (§1) Initially, we phenotypically screened the synthesized compounds over a panel of tumor cell lines composed of HEPG2, A375, SHSY5Y, MCF7, and A549 derived from liver tumor, melanoma, neuroblastoma, breast cancer, and lung adenocarcinoma, respectively. We also considered the HaCaT cell line, coming from keratinocytes, as a healthy control line. As reference, cytotoxic chemotherapeutic agent 5-fluorouracil (5-FU) has been used. The results obtained performing the MTT (3-(4,5-dimethylthiazolyl-2)-2,5-diphenyltetrazolium bromide) assay are summarized in Table .
(§2) The human neuroblastoma SHSY5Y, melanoma A375, human breast cancer MCF7, nonsmall lung cancer A549, and human epidermal keratinocyte HaCaT cell lines were obtained from ATCC and were grown in Dulbecco’s Modified Eagle Medium (DMEM) supplemented with 10% (v/v) FBS, 2 mM L-glutamine, 100 U/mL penicillin, and 0.1 mg/mL streptomycin.
(§3) Cell viability was established by measuring mitochondrial metabolic activity with MTT. In brief, HEPG2 (1 × 10^4 cells/well), A375 (2 × 10^3 cells/well), HaCaT (3 × 10^3 cells/well), A549 (3 × 10^3 cells/well), SHSY5Y (2 × 10^4 cells/well), and MCF 7 (5 × 10^3 cells/well) were plated into 96-well plates for 24 h, then the compounds (0.01–40 μM) were added. After 24h, cells were replaced with a fresh medium containing 0.5 mg/mL MTT. Cells were incubated 1–3 h at 37 °C, then the medium was discarded, and formazan blue crystals in the cells were dissolved in 100 μL per well of a solution containing isopropanol/HCl 0.1 M. The absorbance was measured at 570 nm using a microplate reader (Multiskan Go, Thermo Scientific, Waltham, MA, USA). Cell viability was expressed as a percentage relative to the untreated cells cultured in medium with 0.1% DMSO and set to 100%, whereas 10% DMSO was used as positive control and set to 0% of viability. The EC50 values were calculated using GraphPad Prism 8.0 software by nonlinear regression of dose–response inhibition.

[4] = test system: MCF7; assay: MTT cell viability assay; assay type: cell-based; conditions: Homo sapiens, 24 h, compounds 0.01–40 μM, read-out: In Vitro Cytotoxicity, EC50 ± SD, MCF7
Description: as §1, §2, §3

[5] = target: T3, serine/threonine-protein kinase B-raf (V600E) (Homo sapiens, UniProt P15056, V600E); assay: B-Raf kinase assay (V600E; BPS Bioscience); assay type: biochemical; conditions: top concentration 30 μM, read-out: EC50 or IC50, serine/threonine-protein kinase B-raf
T3 construct: purchased BPS Bioscience
T3 sequence (P15056 whole entry V600E): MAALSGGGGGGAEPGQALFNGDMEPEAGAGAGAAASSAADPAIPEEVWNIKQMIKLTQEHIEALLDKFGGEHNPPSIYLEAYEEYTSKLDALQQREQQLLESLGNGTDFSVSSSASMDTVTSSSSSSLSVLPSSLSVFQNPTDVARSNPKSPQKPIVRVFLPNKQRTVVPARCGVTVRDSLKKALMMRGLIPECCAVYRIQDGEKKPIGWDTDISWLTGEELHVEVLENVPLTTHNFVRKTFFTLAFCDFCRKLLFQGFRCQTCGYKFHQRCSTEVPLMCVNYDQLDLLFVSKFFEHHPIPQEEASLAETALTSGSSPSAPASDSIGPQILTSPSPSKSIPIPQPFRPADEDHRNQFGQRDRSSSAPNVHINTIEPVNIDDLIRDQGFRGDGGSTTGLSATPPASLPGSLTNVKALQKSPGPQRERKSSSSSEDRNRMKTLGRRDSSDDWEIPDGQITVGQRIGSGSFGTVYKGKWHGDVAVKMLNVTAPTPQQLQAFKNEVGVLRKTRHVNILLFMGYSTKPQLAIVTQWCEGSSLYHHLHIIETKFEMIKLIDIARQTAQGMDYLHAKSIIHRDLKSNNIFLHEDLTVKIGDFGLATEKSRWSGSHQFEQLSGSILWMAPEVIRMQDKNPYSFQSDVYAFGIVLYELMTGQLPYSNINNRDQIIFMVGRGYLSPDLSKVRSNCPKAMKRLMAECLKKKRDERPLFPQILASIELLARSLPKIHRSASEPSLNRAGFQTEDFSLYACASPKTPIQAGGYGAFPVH
Experimental: The assay was performed in a volume of 50 μL in a 96-well white plate. The B-Raf kinase assay (V600E; BPS Bioscience, USA) was designed to measure B-Raf kinase activity by the use of Kinase-Glo MAX (Promega, USA), which detects ATP residual following the kinase reaction. For activity measurement, the kinase (final concentration, 2 ng per reaction), Raf substrate and ATP (final concentration, 500 μM), and compounds were incubated for 45 min at 30 °C. The compounds were added at different concentrations in the reaction buffer, starting from a final concentration of 30 μM. Buffer with the same amount of DMSO (1%) was used as a negative control. After the incubation time, Kinase-Glo MAX detection reagent was added for 15 min at room temperature. The generated luminescent signal was read in end point mode using a PerkinElmer AlphaScreen multimodal plate reader (PerkinElmer, Waltham, MA, USA). Experiments were performed in triplicate. IC50 values were calculated with GraphPad Prism 8.0 software by nonlinear dose–response inhibition regression.

[6] = target: T4, isocitrate dehydrogenase (IDH1 R132H) (Homo sapiens, UniProt O75874, R132H); assay: IDH1 enzyme assay (R132H; BPS Bioscience); assay type: biochemical; conditions: top concentration 30 μM
T4 construct: purchased BPS Bioscience
T4 sequence (O75874 whole entry R132H): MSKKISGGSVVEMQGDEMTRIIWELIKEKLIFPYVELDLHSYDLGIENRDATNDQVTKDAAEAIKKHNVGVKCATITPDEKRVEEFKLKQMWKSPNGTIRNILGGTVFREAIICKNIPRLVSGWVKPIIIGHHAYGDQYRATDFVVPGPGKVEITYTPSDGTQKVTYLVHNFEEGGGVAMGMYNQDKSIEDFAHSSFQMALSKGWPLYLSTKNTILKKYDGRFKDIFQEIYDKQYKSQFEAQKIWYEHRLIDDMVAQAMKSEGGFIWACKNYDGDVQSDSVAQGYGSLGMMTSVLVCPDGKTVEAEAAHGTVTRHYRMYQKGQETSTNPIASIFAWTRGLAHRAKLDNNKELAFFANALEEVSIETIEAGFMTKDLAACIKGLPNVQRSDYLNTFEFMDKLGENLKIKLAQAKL
Experimental: The assay was performed in a volume of 100 μL in a 96-well black plate. The IDH1 enzyme assay (R132H; BPS Bioscience, USA) was designed to measure IDH1 enzyme activity by measuring NADPH consumption. For activity measurement, the enzyme (final concentration, 2.5 ng per reaction), α-ketoglutarate (IDH1 substrate; final concentration, 4 mM), NADPH (final concentration, 500 μM), and compounds were incubated for 1 h at room temperature. The compounds were added at different concentrations in the reaction buffer, starting from a final concentration of 30 μM. Buffer with the same amount of DMSO (1%) was used as a negative control. After the incubation time, NADPH detection reagent was added for 5 min at room temperature. The fluorescence signals (excitation/emission, 544 nm/600 nm) were read using a PerkinElmer EnSpire multimode plate reader (PerkinElmer, Waltham, MA, USA). The experiments were performed in triplicate. The IC50 values were calculated using GraphPad Prism 8.0 software by nonlinear regression of dose–response inhibition.

T1 sequence (Q9Y2T6 whole entry): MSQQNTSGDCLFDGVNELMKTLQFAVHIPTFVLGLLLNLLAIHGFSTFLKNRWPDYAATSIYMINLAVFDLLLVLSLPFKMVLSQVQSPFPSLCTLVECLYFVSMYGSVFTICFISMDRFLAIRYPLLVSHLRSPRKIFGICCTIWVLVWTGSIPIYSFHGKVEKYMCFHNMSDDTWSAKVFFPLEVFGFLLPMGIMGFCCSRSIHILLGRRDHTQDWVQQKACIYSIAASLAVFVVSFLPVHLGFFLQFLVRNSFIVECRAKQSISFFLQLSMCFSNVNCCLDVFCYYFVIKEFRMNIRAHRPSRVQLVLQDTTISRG

IC50 [1] | IC50 [2] | IC50 [5] | IC50 ([6]; read-out: EC50 or IC50, isocitrate dehydrogenase) | EC50 or IC50, isocitrate dehydrogenase [6] | Compound | EC50 [3] | EC50 [4]
≥ 30 µM | > 30 µM | ≥ 30 µM | 14.9 ± 2.12 µM | – | CC(C)C[C@H]1C(=O)N(Cc2ccc(C(F)(F)F)cc2)c2ccccc2C(=O)N1Cc1ccc(C(F)(F)F)cc1 [Compound 31, (S)-3-Isobutyl-1,4-bis(4-(trifluoromethyl)benzyl)-3,4-dihydro-1H-benzo[e][1,4]diazepine-2,5-dione] | > 40 µM | 17.3 ± 2.38 µM
≥ 30 µM | > 30 µM | ≥ 30 µM | – | not soluble | CC(C)C[C@@H](C(=O)OCc1ccccc1)N1Cc2ccccc2NC1=O [Compound 63, Benzyl (S)-4-Methyl-2-(2-oxo-1,4-dihydroquinazolin-3(2H)-yl)pentanoate] | 36.4 ± 3.15 µM | 27.9 ± 2.44 µM

— PMC12362587, “Untargeted Diversity-Oriented Synthesis for the Discovery of New Antitumor Agents: An Integrated Approach of Inverse Virtual Screening, Bioinformatics, and Omics for Target Deconvolution” (Journal of Medicinal Chemistry, 2025)
